Test: Andersen Cascade Impactor (ACI) evaluation of pMDI spray drug delivery characteristics
Assay type: physicochemical
Method: Spray characteristics of the system were evaluated by an Andersen cascade impactor fitted with a USP throat (App. 1, USP 33). […] This was repeated twice. Pre- and post-shot weights were recorded. […] The solutions were analysed by using a UPLC/MS (Ultra Performance Liquid Chromatography/Mass Spectrometry) system for the determination of the drug deposition.

[1] = Ex 2/3, Standard MDI, single can, 0.22 mm orifice, mean, n=3
[2] = Ex 2, Dual MDI, Formulations 3+4, single 0.22 mm orifice, mean, n=2
[3] = Ex 3, Dual MDI, Formulation 3 + placebo Formulation 5, single 0.22 mm orifice, mean, n=3
[4] = Ex 5, Dual-MDI, Formulations 8+3, single 0.22 mm orifice, mean, n=3
[5] = Ex 19, dual reservoir-single orifice prototype (FIG. 14B)
[6] = Ex 19, dual reservoir-single orifice prototype (FIG. 14B), BDP/Formoterol 100/6 μg/25 μl + glycopyrronium bromide 12.5 μg/25 μl
[7] = Ex 20, triple reservoir-single orifice prototype (FIG. 16B)
[8] = Ex 20, triple reservoir-single orifice prototype (FIG. 16B), BDP/Formoterol + glycopyrronium bromide + budesonide 50 μg/25 μl

Row | Structure (SMILES) | Delivered Dose [5] | FPD [5] | FPF [5] | MMAD [5] | Metered Dose [6] | Delivered Dose [7] | FPD [7] | FPF [7] | MMAD [7] | Metered Dose [8] | other results
1 | COc1ccc(C[C@@H](C)NC[C@H](O)c2ccc(O)c(NC=O)c2)cc1.COc1ccc(C[C@@H](C)NC[C@H](O)c2ccc(O)c(NC=O)c2)cc1.O=C(O)/C=C/C(=O)O [Formoterol, Formoterol fumarate] | 3.6 µg | 1.6 µg | 44.3% | 1.3 μm | 5.7 µg | 3.3 µg | 1.1 µg | 33.9% | 1.5 μm | 5.2 µg | Delivered Dose (Ex 2/3, Standard MDI, single can (BDP 100 μg/50 μl or formoterol fumarate 6 μg/50 μl), 0.22 mm orifice, mean, n=3): 4.1 µg; FPD ≦ 5 μm [1]: 2.1 µg; FPF [1]: 51.9%; MMAD [1]: 0.9 μm; Delivered Dose (Ex 2, Dual MDI, Formulation 3 (formoterol fumarate 6 μg/25 μl) + Formulation 4 (BDP 100 μg/25 μl, glycerol) mixed, single 0.22 mm orifice, mean, n=2): 3.2 µg; FPD ≦ 5 μm [2]: 1.9 µg; FPF [2]: 61.1%; MMAD [2]: 2.1 μm; Delivered Dose (Ex 3, Dual MDI, Formulation 3 (formoterol 6 μg/25 μl) + placebo Formulation 5 (glycerol), single 0.22 mm orifice, mean, n=3): 4.2 µg; FPD ≦ 5 μm [3]: 2.7 µg; FPF [3]: 64.0%; MMAD [3]: 1.5 μm; Delivered Dose (Ex 5, Dual-MDI, Formulation 8 (budesonide 400 μg/63 μl) + Formulation 3 (formoterol 6 μg/25 μl), single 0.22 mm orifice, mean, n=3): 3.5 ± 0.7 µg; FPD ≦ 5 μm [4]: 1.9 ± 0.2 µg; FPF [4]: 53.6 ± 6.6%; MMAD [4]: 1.7 ± 0.1 μm
2 | C[N+]1(C)CCC(OC(=O)C(O)(c2ccccc2)C2CCCC2)C1 (stereo not drawn) [Glycopyrronium bromide] | 7.9 µg | 3.5 µg | 44.1% | 1.3 μm | 11.3 µg | 6.9 µg | 2.2 µg | 32.4% | 1.4 μm | 10.8 µg | 
